Test results from patent publication US20260132129A1 (Genesis Therapeutics, Inc., priority 2022, published 2026).

Target: T1, PI3Kα H1047R (T47D cells) (Homo sapiens, UniProt P42336, H1047R)
T1 construct: endogenous in cells; host or cells: T47D cells
Assay: PI3Kα cellular assay: pAKT HTRF in T47D cells after EGF stimulation
Format: cell-based
Conditions: for IC50: T47D cells (PI3Kα H1047R), pAKT S473 HTRF, EGF stimulation; for T47D pAKT S473 HTRF IC50 (H1047R): T47D (H1047R) selectivity over SKBR3 (WT): selectivity of T47D (H1047R) over SKBR3 (WT) pAKT IC50
Outline: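 T47D cells (PIK3CA H1047R) serum-starved 16 h, then treated 1 h at 37 °C with compound (10,000 nM top, 3-fold steps to 0.5 nM). After 10 min stimulation with 20 ng/mL EGF, cells were lysed and pAKT measured by HTRF.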

T1 sequence (P42336 whole entry H1047R): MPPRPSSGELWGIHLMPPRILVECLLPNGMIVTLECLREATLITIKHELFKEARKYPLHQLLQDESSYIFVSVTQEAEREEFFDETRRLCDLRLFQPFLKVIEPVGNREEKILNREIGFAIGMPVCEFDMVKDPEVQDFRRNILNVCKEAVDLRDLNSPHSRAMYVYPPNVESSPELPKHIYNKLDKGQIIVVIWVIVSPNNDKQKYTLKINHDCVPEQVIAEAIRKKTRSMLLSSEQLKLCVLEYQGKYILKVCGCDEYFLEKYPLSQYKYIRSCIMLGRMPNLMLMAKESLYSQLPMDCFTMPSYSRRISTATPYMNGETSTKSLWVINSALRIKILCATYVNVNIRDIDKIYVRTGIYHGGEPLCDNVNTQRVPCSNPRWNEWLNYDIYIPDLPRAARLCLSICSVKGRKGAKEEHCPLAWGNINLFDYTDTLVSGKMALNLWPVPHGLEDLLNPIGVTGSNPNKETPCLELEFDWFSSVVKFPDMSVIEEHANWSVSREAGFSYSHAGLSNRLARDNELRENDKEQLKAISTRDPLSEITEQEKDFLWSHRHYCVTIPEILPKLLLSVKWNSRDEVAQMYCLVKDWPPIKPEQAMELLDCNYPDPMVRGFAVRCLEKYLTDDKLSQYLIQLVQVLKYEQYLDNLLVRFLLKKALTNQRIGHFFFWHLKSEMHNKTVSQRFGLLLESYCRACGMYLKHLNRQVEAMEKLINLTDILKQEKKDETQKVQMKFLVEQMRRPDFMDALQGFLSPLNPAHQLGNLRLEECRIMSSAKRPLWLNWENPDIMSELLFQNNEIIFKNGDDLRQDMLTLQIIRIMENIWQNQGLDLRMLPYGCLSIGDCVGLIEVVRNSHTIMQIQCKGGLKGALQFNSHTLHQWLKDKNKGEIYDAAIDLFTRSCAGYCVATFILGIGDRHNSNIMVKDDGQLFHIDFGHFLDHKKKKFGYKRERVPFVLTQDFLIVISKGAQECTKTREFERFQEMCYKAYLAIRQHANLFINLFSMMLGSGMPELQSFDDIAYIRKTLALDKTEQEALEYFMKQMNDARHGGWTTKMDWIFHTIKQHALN
T1 sequence (P27986 whole entry partner): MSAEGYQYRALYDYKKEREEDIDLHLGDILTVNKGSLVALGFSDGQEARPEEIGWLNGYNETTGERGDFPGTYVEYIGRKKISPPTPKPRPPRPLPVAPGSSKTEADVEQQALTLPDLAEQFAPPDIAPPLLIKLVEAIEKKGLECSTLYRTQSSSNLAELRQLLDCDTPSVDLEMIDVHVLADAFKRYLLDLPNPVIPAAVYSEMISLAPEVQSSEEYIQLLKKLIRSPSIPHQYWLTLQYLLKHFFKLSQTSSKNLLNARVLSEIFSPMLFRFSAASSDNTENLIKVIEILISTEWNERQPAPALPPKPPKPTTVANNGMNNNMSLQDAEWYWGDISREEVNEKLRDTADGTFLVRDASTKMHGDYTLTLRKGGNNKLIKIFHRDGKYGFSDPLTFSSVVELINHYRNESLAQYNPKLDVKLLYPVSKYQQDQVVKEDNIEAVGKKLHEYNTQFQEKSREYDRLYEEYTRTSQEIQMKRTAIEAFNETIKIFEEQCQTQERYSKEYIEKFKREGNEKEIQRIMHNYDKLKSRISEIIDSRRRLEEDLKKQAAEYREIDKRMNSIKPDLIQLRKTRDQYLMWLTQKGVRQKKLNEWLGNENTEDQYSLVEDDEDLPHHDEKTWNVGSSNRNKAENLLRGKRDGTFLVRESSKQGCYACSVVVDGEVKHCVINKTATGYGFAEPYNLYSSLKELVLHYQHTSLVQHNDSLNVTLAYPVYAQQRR

IC50 [µM]	T47D pAKT S473 HTRF IC50 (H1047R): T47D (H1047R) selectivity over SKBR3 (WT)	Compound
0.5 to 2	B (B denotes 20-fold≥value>5-fold)	Cc1cc([C@@H](C)Nc2ccccc2C(=O)O)c2nc(-c3ccc4c(c(N)nn4C)c3C)cc(=O)n2c1 [Compound 702]
> 2	C (C denotes ≤5-fold)	Cc1cc([C@H](C)Nc2ccccc2C(=O)O)c2nc(-c3ccc4c(c(N)nn4C)c3C)cc(=O)n2c1 [Compound 703]
> 2	C (C denotes ≤5-fold)	Cc1cc([C@@H](C)Nc2ccccc2C(=O)O)c2nc(-c3cc4c(N)nn(C)c4cc3C)cc(=O)n2c1 [Compound 704]
> 2	C (C denotes ≤5-fold)	Cc1cc([C@H](C)Nc2ccccc2C(=O)O)c2nc(-c3cc4c(N)nn(C)c4cc3C)cc(=O)n2c1 [Compound 705]
0.5 to 2	B (B denotes 20-fold≥value>5-fold)	Cc1cc(C(C)Nc2ccccc2C(=O)O)c2nc(-c3ccc4c(c(N)nn4C)c3C)c(C)c(=O)n2c1 (stereo not drawn) [Compound 706]
> 2	C (C denotes ≤5-fold)	Cc1cc([C@H](C)Nc2ccccc2C(=O)O)c2nc(N3C[C@@H](C)C(F)(F)[C@@H](C)C3)cc(=O)n2c1 [Compound 712, 2-(((S)-1-(2-((3S,5R)-4,4-difluoro-3,5-dimethylpiperidin-1-yl)-7-methyl-4-oxo-4H-pyrido[1,2-a]pyrimidin-9-yl)ethyl)amino)benzoic acid]
	C (C denotes ≤5-fold)	Cc1cc([C@H](C)Nc2cccc3c2C(=O)NCC3)c2nc(N3CCOCC3)cc(=O)n2c1 [Compound 714]
	C (C denotes ≤5-fold)	Cc1cc([C@@H](C)Nc2ccccc2-c2ccnnc2)c2nc(C3Cc4ccccc4C3)cc(=O)n2c1 [Compound 718]
0.5 to 2	B (B denotes 20-fold≥value>5-fold)	Cc1cc(C(C)Nc2ccccc2C(=O)O)c2nc(-c3ccc4c(c(N)nn4C)c3C)c(C)c(=O)n2c1 (stereo not drawn) [Compound 720]
0.1 to 0.5		Cc1cc(C(C)Nc2ccccc2C(=O)O)c2nc(-c3ccc(F)cc3)c(C)c(=O)n2c1 (stereo not drawn) [Compound 721]
< 0.1	A (A denotes >20-fold)	CCn1nc(N)c2cc(-c3cc(=O)n4cc(C)cc([C@@H](C)Nc5ccccc5C(=O)O)c4n3)ccc21 [Compound 722]
> 2	C (C denotes ≤5-fold)	CCn1nc(N)c2c(C)c(-c3cc(=O)n4cc(C)cc([C@H](C)Nc5ccccc5C(=O)O)c4n3)ccc21 [Compound 723]
0.1 to 0.5	A (A denotes >20-fold)	Cc1cc(C(C)Nc2ccccc2C(=O)O)c2nc(-c3ccc4c(c3)c(C(F)(F)F)nn4C)cc(=O)n2c1 (stereo not drawn) [Compound 724]
< 0.1	A (A denotes >20-fold)	Cc1cc(C(C)Nc2ccccc2C(=O)O)c2nc(-c3ccc4c(c3)c(C)nn4C)cc(=O)n2c1 (stereo not drawn) [Compound 725]
	B (B denotes 20-fold≥value>5-fold)	Cc1cc(C(C)Nc2ccccc2C(=O)O)c2nc(-c3ccc4c(c3)CCN4CC(N)=O)cc(=O)n2c1 (stereo not drawn) [Compound 726]
> 2	C (C denotes ≤5-fold)	Cc1cc([C@@H](C)Nc2ccccc2C(=O)O)c2nc(N3CCC(C)(C)CC3)cc(=O)n2c1 [Compound 727]
> 2	C (C denotes ≤5-fold)	Cc1cc([C@H](C)Nc2ccccc2C(=O)O)c2nc(N3CCC(C)(C)CC3)cc(=O)n2c1 [Compound 728]
0.1 to 0.5	A (A denotes >20-fold)	Cc1cc(C(C)Nc2ccccc2S(N)(=O)=O)c2nc(N3C[C@@H](C)O[C@@H](C)C3)cc(=O)n2c1 (stereo partly drawn) [Compound 729]
> 2	C (C denotes ≤5-fold)	Cc1cc([C@H](C)Nc2ccccc2S(N)(=O)=O)c2nc(N3C[C@@H](C)O[C@@H](C)C3)cc(=O)n2c1 [Compound 731]
	C (C denotes ≤5-fold)	Cc1cc([C@@H](C)Nc2ccccc2C(=O)O)c2nc(-c3cc4c(N)nn(C)c4cc3C)c(C)c(=O)n2c1 [Compound 732]
	C (C denotes ≤5-fold)	Cc1cc([C@H](C)Nc2ccccc2C(=O)O)c2nc(-c3cc4c(N)nn(C)c4cc3C)c(C)c(=O)n2c1 [Compound 733]
	C (C denotes ≤5-fold)	Cc1cc(C(C)CNc2ccccc2C(=O)O)c2nc(N3CCOCC3)cc(=O)n2c1 (stereo not drawn) [Compound 735]
0.1 to 0.5	A (A denotes >20-fold)	Cc1cc(C(C)Nc2ccccc2C(=O)O)c2nc(-c3ccc4c(c3)c(C3CC3)nn4C)cc(=O)n2c1 (stereo not drawn) [Compound 736]

IC50 [µM]	T47D pAKT S473 HTRF IC50 (H1047R): T47D (H1047R) selectivity over SKBR3 (WT)	Compound
0.1 to 0.5	A (A denotes >20-fold)	Cc1cc([C@@H](C)Nc2ccccc2C(=O)O)c2nc(-c3ccc4c(c3)c(C(F)(F)F)nn4C)cc(=O)n2c1 [Compound 737]
> 2	C (C denotes ≤5-fold)	Cc1cc([C@H](C)Nc2ccccc2C(=O)O)c2nc(-c3ccc4c(c3)c(C(F)(F)F)nn4C)cc(=O)n2c1 [Compound 738]
	C (C denotes ≤5-fold)	Cc1cc([C@H](C)Nc2ccccc2C(=O)O)c2nc(-c3ccc4c(ccn4CC(N)=O)c3)cc(=O)n2c1 [Compound 741]
	A (A denotes >20-fold)	Cc1cc(C(C)Nc2cccc3[nH]nnc23)c2nc(N3CCOCC3)cc(=O)n2c1 (stereo not drawn) [Compound 743]
	B (B denotes 20-fold≥value>5-fold)	Cc1cc([C@@H](C)Nc2cccc3[nH]nnc23)c2nc(N3CCOCC3)cc(=O)n2c1 [Compound 744]
	C (C denotes ≤5-fold)	Cc1cc([C@H](C)Nc2cccc3[nH]nnc23)c2nc(N3CCOCC3)cc(=O)n2c1 [Compound 745]
< 0.1	A (A denotes >20-fold)	Cc1cc([C@@H](C)Nc2ccccc2C(=O)O)c2nc(-c3ccc4c(c3)c(C3CC3)nn4C)cc(=O)n2c1 [Compound 748]
> 2	C (C denotes ≤5-fold)	Cc1cc([C@H](C)Nc2ccccc2C(=O)O)c2nc(-c3ccc4c(c3)c(C3CC3)nn4C)cc(=O)n2c1 [Compound 749]
	C (C denotes ≤5-fold)	CC1=NC(C)c2cc(-c3cc(=O)n4cc(C)cc([C@@H](C)Nc5ccccc5C(=O)O)c4n3)ccc21 (stereo partly drawn) [Compound 752]
0.5 to 2	B (B denotes 20-fold≥value>5-fold)	Cc1cc(C(C)Nc2ccccc2C(=O)O)c2nc(-c3cc(C(N)=O)c4[nH]ccc4c3)cc(=O)n2c1 (stereo not drawn) [Compound 753]
> 2	C (C denotes ≤5-fold)	Cc1cc([C@H](C)Nc2ccccc2C(=O)O)c2nc(-c3cc(C(N)=O)c4[nH]ccc4c3)cc(=O)n2c1 [Compound 754]
> 2	C (C denotes ≤5-fold)	Cc1cc([C@@H](C)Nc2ccccc2C(=O)O)c2nc(C3CCN(S(N)(=O)=O)CC3)cc(=O)n2c1 [Compound 755]
> 2	C (C denotes ≤5-fold)	Cc1cc([C@H](C)Nc2ccccc2C(=O)O)c2nc(C3CCN(S(N)(=O)=O)CC3)cc(=O)n2c1 [Compound 756]
> 2	C (C denotes ≤5-fold)	Cc1cc(C(C)Nc2ccccc2C(=O)O)c2nc(-c3ccc4c(c3)C(C)NN4C)cc(=O)n2c1 (stereo not drawn) [Compound 757]
0.1 to 0.5	A (A denotes >20-fold)	CNc1nn(C)c2ccc(-c3cc(=O)n4cc(C)cc(C(C)Nc5ccccc5C(=O)O)c4n3)cc12 (stereo not drawn) [Compound 758]
	C (C denotes ≤5-fold)	Cc1cc(C(C)NC2=C(C(=O)O)C=CCC2)c2nc(-c3ccc(CC4CCN(C(=O)C5CC5)CC4)nc3)cc(=O)n2c1 (stereo not drawn) [Compound 759]
< 0.1	A (A denotes >20-fold)	Cc1cc([C@@H](C)Nc2ccccc2C(=O)O)c2nc(-c3cnc4c(c3)c(C)nn4C)c(C)c(=O)n2c1 [Compound 762]
0.5 to 2	B (B denotes 20-fold≥value>5-fold)	Cc1cc([C@H](C)Nc2ccccc2C(=O)O)c2nc(-c3cnc4c(c3)c(C)nn4C)c(C)c(=O)n2c1 [Compound 763]
	A (A denotes >20-fold)	Cc1cc([C@H](C)Nc2ccccc2C(=O)O)c2nc(-c3ccc4c(c3)CC(=O)N4)cc(=O)n2c1 [Compound 764]
	C (C denotes ≤5-fold)	Cc1cc([C@H](C)Nc2ccccc2C(=O)O)c2nc(-c3ccc4c(c3)CC(=O)N4)cc(=O)n2c1 [Compound 766]
< 0.1	A (A denotes >20-fold)	CNc1nn(C)c2ccc(-c3cc(=O)n4cc(C)cc([C@@H](C)Nc5ccccc5C(=O)O)c4n3)cc12 [Compound 767]
0.1 to 0.5	A (A denotes >20-fold)	CNc1nn(C)c2ccc(-c3cc(=O)n4cc(C)cc([C@H](C)Nc5ccccc5C(=O)O)c4n3)cc12 [Compound 768]
